One experiment deals with MCL-1 (Homo sapiens (Human), UniProt Q07820, K194A/K197A/R201A). The experiment can be described thus: Protein-protein interaction assay MCL-1/Noxa BH3 peptide (MCL-1 assay, TR-FRET). In kind it is binding. Particulars: MCL-1 Assay IC50 (median). A digest of the protocol:
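Competition TR-FRET with MBP-MCL-1 (aa 173-321) at 1 nM final and biotinylated Noxa BH3 peptide, pH 7 Tris buffer. Compounds pre-incubated 10 min at 22° C., then 1 h at 22° C. and overnight at 4° C. 665/620 nm ratio normalized to DMSO; IC50 from 4-parameter fit.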
A general note: In TR-FRET formats the signal depends on donor and acceptor labels being close together.

The target in another experiment is BCL-2 (Homo sapiens (Human), UniProt P10415). The experiment can be described thus: Protein-protein interaction assay BCL-2/Bad BH3 peptide (BCL-2 assay, TR-FRET). In kind it is binding. To be noted: read-out: BCL-2 Assay IC50 (median). The gist of the method: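 His-tagged BCL-2 (aa 1-211, E. coli, 1 nM) preincubated 10 min at 22° C with compound (0.1 nM-20 μM), then 1 nM biotinylated Bad BH3 peptide with anti-His-Eu/streptavidin-XL665 added. Buffer: 50 mM Tris pH 7, 100 mM NaCl, 50 mM KF, 2 mM DTT. Incubated 1 h at 22° C, then overnight at 4° C. 665/620 ratio normalized; IC50 by 4-parameter fit.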

Where a name gives a salt, the structure may show the parent alone.

Sequence of BCL-2 (P10415 1-211): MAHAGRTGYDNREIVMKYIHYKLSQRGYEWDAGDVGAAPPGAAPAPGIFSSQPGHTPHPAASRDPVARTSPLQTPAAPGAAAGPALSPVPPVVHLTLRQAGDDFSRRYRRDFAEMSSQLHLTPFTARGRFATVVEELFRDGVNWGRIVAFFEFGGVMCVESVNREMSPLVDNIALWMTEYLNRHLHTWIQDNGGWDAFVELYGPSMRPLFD
Sequence of MCL-1 (Q07820 whole entry, looked up, stated change not applied, the tested form may be a part): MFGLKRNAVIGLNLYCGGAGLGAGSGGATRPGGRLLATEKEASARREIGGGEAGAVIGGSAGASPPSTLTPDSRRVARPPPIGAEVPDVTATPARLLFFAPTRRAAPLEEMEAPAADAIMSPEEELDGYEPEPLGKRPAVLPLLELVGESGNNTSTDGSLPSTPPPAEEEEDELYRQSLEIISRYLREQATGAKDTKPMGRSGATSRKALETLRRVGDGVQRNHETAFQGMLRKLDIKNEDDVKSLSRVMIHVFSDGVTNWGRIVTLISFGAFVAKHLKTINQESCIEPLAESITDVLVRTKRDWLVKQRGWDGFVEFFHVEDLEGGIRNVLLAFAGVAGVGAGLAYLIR

For the molecule `CCc1c2c(nn1C)C(CCC(C)(C)O)OCCCCn1c(C(=O)O)c(CCCOc3cccc4cc(F)ccc34)c3ccc(Cl)c-2c31` (racemic) [Example 74, (rac)-4-chloro-3-ethyl-7-{3-[(6-fluoronaphthalen-1-yl)oxy]propyl}-(15-rac)-(3-hydroxy-3-methylbutyl)-2-methyl-2,10,11,12,13,15-hexahydropyrazolo[4′,3′:9,10][1,6]oxazacycloundecino[8,7,6-hi]indole-8-carboxylic Acid], the 50% inhibitory concentration (IC50) is 1 nM at MCL-1 and 19600 nM on BCL-2.
Turning to `CCc1c2c(nn1C)C(Cc1ccccc1)OCCCCn1c(C(=O)O)c(CCCOc3cccc4cc(F)ccc34)c3ccc(Cl)c-2c31` (racemic) [Example 92, (rac)-(rac-15)-benzyl-4-chloro-3-ethyl-7-{3-[(6-fluoro-1-naphthyl)oxy]propyl}-2-methyl-2,10,11,12,13,15-hexahydropyrazolo[4′,3′:9,10][1,6]oxazacycloundecino[8,7,6-hi]indole-8-carboxylic Acid], the IC50 on MCL-1 amounted to 3.2 nM; at BCL-2, 12200 nM.
In the same order, the values of `Cc1c2c(nn1C)C(CCN1CCOCC1)OCCCCn1c(C(=O)O)c(CCCOc3cccc4ccccc34)c3ccc(Cl)c-2c31` (single isomer, unassigned; enantiomer 1) [Example 14, 4-chloro-2,3-dimethyl-15-[2-(morpholin-4-yl)ethyl]-7-{3-[(naphthalen-1-yl)oxy]propyl}-2,10,11,12,13,15-hexahydropyrazolo[4′,3′:9,10][1,6]oxazacycloundecino[8,7,6-hi]indole-8-carboxylic Acid (Enantiomer 1)] are 0.53 nM and greater than 20000 nM.
In the same order, the values of `Cc1c2c(nn1C)C(CCO)OCCCCn1c(C(=O)O)c(CCCOc3cccc4ccccc34)c3ccc(Cl)c-2c31` (single isomer, unassigned; enantiomer 1) [Example 31, (+)-4-chloro-15-(2-hydroxyethyl)-2,3-dimethyl-7-{3-[(naphthalen-1-yl)oxy]propyl}-2,10,11,12,13,15-hexahydropyrazolo[4′,3′:9,10][1,6]oxazacycloundecino[8,7,6-hi]indole-8-carboxylic Acid (Enantiomer 1)] are 0.26 nM and greater than 20000 nM.
Taken in the same sequence, the figures for `CCc1c2c(nn1C)C(CCO)OCCCCn1c(C(=O)O)c(CCCOc3cccc4cc(F)ccc34)c3ccc(Cl)c-2c31` (single isomer, unassigned; enantiomer 1) [Example 45, (+)-4-chloro-3-ethyl-7-{3-[(6-fluoronaphthalen-1-yl)oxy]propyl}-15-(2-hydroxyethyl)-2-methyl-2,10,11,12,13,15-hexahydropyrazolo[4′,3′:9,10][1,6]oxazacycloundecino[8,7,6-hi]indole-8-carboxylic Acid (Enantiomer 1)] were 0.55 nM and greater than 20000 nM.
Turning to `CCc1c2c(nn1C)C(CCN1CCOCC1)OCCCCn1c(C(=O)O)c(CCCOc3cccc4cc(F)ccc34)c3ccc(F)c-2c31` (single isomer, unassigned; enantiomer 1) [Example 50, (+)-3-ethyl-4-fluoro-7-{3-[(6-fluoronaphthalen-1-yl)oxy]propyl}-2-methyl-15-[2-(morpholin-4-yl)ethyl]-2,10,11,12,13,15-hexahydropyrazolo[4′,3′:9,10][1,6]oxazacycloundecino[8,7,6-hi]indole-8-carboxylic Acid (Enantiomer 1)], the values for the IC50 against MCL-1 and at BCL-2 were 0.48 nM and greater than 20000 nM, respectively.
In the same order, the values of `Cc1c2c(nn1C)C(CCN1CCOCC1)OCCCCn1c(C(=O)O)c(CCCOc3cccc4ccccc34)c3ccc(Cl)c-2c31` (single isomer, unassigned; enantiomer 2) [Example 15, 4-chloro-2,3-dimethyl-15-[2-(morpholin-4-yl)ethyl]-7-{3-[(naphthalen-1-yl)oxy]propyl}-2,10,11,12,13,15-hexahydropyrazolo[4′,3′:9,10][1,6]oxazacycloundecino[8,7,6-hi]indole-8-carboxylic Acid (Enantiomer 2)] are 65 nM and greater than 20000 nM.
For the molecule `Cc1c2c(nn1C)C(CCN1CCOCC1)OCCCCn1c(C(=O)O)c(CCCOc3cccc4cc(F)ccc34)c3ccc(Cl)c-2c31` (single isomer, unassigned; enantiomer 2) [Example 18, 4-chloro-7-{3-[(6-fluoronaphthalen-1-yl)oxy]propyl}-2,3-dimethyl-15-[2-(morpholin-4-yl)ethyl]-2,10,11,12,13,15-hexahydropyrazolo[4′,3′:9,10][1,6]oxazacycloundecino[8,7,6-hi]indole-8-carboxylic Acid (Enantiomer 2)], the half-inhibitory concentration (IC50) was 42 nM against MCL-1 and greater than 20000 nM on BCL-2.
In the same order, the values of `Cc1c2c(nn1C)C(CCN1CCOCC1)OCCCCn1c(C(=O)O)c(CCCOc3cccc4cc(F)ccc34)c3ccc(F)c-2c31` (single isomer, unassigned; enantiomer 2) [Example 21, 4-fluoro-7-{3-[(6-fluoronaphthalen-1-yl)oxy]propyl}-2,3-dimethyl-15-[2-(morpholin-4-yl)ethyl]-2,10,11,12,13,15-hexahydropyrazolo[4′,3′:9,10][1,6]oxazacycloundecino[8,7,6-hi]indole-8-carboxylic Acid (Enantiomer 2)] are 160 nM and greater than 20000 nM.
In the same order, the values of `Cc1c2c(nn1C)C(CCO)OCCCCn1c(C(=O)O)c(CCCOc3cccc4ccccc34)c3ccc(Cl)c-2c31` (single isomer, unassigned; enantiomer 2) [Example 32, (−)-4-chloro-15-(2-hydroxyethyl)-2,3-dimethyl-7-{3-[(naphthalen-1-yl)oxy]propyl}-2,10,11,12,13,15-hexahydropyrazolo[4′,3′:9,10][1,6]oxazacycloundecino[8,7,6-hi]indole-8-carboxylic Acid (Enantiomer 2)] are 75 nM and greater than 20000 nM.
`CCc1c2c(nn1C)C(CCO)OCCCCn1c(C(=O)O)c(CCCOc3cccc4cc(F)ccc34)c3ccc(Cl)c-2c31` (single isomer, unassigned; enantiomer 2) [Example 46, (−)-4-chloro-3-ethyl-7-{3-[(6-fluoronaphthalen-1-yl)oxy]propyl}-15-(2-hydroxyethyl)-2-methyl-2,10,11,12,13,15-hexahydropyrazolo[4′,3′:9,10][1,6]oxazacycloundecino[8,7,6-hi]indole-8-carboxylic Acid (Enantiomer 2)]: the IC50 was 36 nM against MCL-1 and greater than 20000 nM on BCL-2.
On to `CCc1c2c(nn1C)C(CCN1CCOCC1)OCCCCn1c(C(=O)O)c(CCCOc3cccc4cc(F)ccc34)c3ccc(F)c-2c31` (single isomer, unassigned; enantiomer 2) [Example 51, (−)-3-ethyl-4-fluoro-7-{3-[(6-fluoronaphthalen-1-yl)oxy]propyl}-2-methyl-15-[2-(morpholin-4-yl)ethyl]-2,10,11,12,13,15-hexahydropyrazolo[4′,3′:9,10][1,6]oxazacycloundecino[8,7,6-hi]indole-8-carboxylic Acid (Enantiomer 2)], for which the concentration for half-maximal inhibition (IC50) at MCL-1 was 60 nM; at BCL-2 it was greater than 20000 nM.
Turning to `CCc1c2c(nn1C)C(CCC1CCOCC1)OCCCCn1c(C(=O)O)c(CCCOc3cccc4cc(F)ccc34)c3ccc(Cl)c-2c31` (single isomer, unassigned; enantiomer 2) [Example 62, (−)-4-chloro-3-ethyl-7-{3-[(6-fluoronaphthalen-1-yl)oxy]propyl}-2-methyl-15-[2-(oxan-4-yl)ethyl]-2,10,11,12,13,15-hexahydropyrazolo[4′,3′:9,10][1,6]oxazacycloundecino[8,7,6-hi]indole-8-carboxylic Acid (Enantiomer 2)], the half-inhibitory concentration (IC50) was 120 nM against MCL-1 and greater than 20000 nM on BCL-2.
In the same order, the values of `Cc1c2c(nn1C)C(C)OCCCCn1c(C(=O)O)c(CCCOc3cccc4ccccc34)c3cccc-2c31` (single isomer, unassigned; stereoisomer 1) [Example 2, 2,3,15-trimethyl-7-[3-(naphthalen-1-yloxy)propyl]-2,10,11,12,13,15-hexahydropyrazolo[4′,3′:9,10][1,6]oxazacycloundecino[8,7,6-hi]indole-8-carboxylic Acid Trifluoroacetic Acid Salt (Stereoisomer 1)] are 1.2 nM and greater than 20000 nM.
`Cc1c2c(nn1C)C(C)OCCCCn1c(C(=O)O)c(CCCOc3cccc4ccccc34)c3cccc-2c31` (single isomer, unassigned; stereoisomer 2) [Example 3, 2,3,15-trimethyl-7-[3-(naphthalen-1-yloxy)propyl]-2,10,11,12,13,15-hexahydropyrazolo[4′,3′:9,10][1,6]oxazacycloundecino[8,7,6-hi]indole-8-carboxylic Acid Trifluoroacetic Acid Salt (Stereoisomer 2)]: the figures for the IC50 at MCL-1 and at BCL-2 were 22 nM and greater than 20000 nM, respectively.
For the molecule `Cc1c2c(nn1C)C(CCN1CCOCC1)OCCCCn1c(C(=O)O)c(CCCOc3cccc4ccccc34)c3cccc-2c31` (single isomer, unassigned; stereoisomer 2) [Example 6, 2,3-dimethyl-15-[2-(morpholin-4-yl)ethyl]-7-[3-(naphthalen-1-yloxy)propyl]-2,10,11,12,13,15-hexahydropyrazolo[4′,3′:9,10][1,6]oxazacycloundecino[8,7,6-hi]indole-8-carboxylic Acid (Stereoisomer 2)], the 50% inhibitory concentration (IC50) against MCL-1 was 51 nM; on BCL-2 it was greater than 20000 nM.

Broadly, the IC50 is the midpoint of a concentration-inhibition curve.

The values above are taken from patent US11440923B2, “Substituted macrocyclic indole derivatives” (Bayer Aktiengesellschaft, priority 2017, dated 2022).
